Results as given in patent US20240131007A1, “METHODS AND COMPOSITIONS FOR PICORNAVIRUS ANTI-VIRAL AGENTS” (University of Connecticut, priority 2022, published 2024).
“Also recorded” adds a separate entry of the source. Like-named read-outs stand apart in the source and are kept apart here.

Experiments:
EV-A71 = test: CPE inhibition assay (Cell Titer Glo) against EV-A71 in Vero cells; format: cell-based, Enterovirus A71; settings: for anti-viral activity (luminescence above 3SD cutoff): single concentration 50 μM; for Selectivity Index: CC50/IC50; for selectivity index: from IC50 and CC50
[1] = biological target: T1, EV-A71 Δ2C^116-329 (2C ATPase) (Enterovirus A71, UniProt B9VUU3); test: 2C ATPase inhibition assay (colorimetric malachite green, dose response); format: biochemical
T1 construct: Ni-NTA and SEC purified

EV-A71 Δ2C^116-329 [2] = biological target: T2, EV-A71 Δ2C^116-329 (Human enterovirus 71, UniProt Q66478); test: biochemical; format: biochemical; settings: for inhibition of the ATPase function of Δ2C^116-329 (absorbance below 3SD cutoff): single concentration 50 μM
T2 construct: EV-A71 Δ2C (amino acids 116-329) was designed with; made in house; host or cells: E. coli Rosetta 2(DE3) pLysS, pMALc5x vector

in vitro = settings: African green monkey
wild type EV-A71 (WT) = format: cell-based; settings: 500 μM compound; Vero cells
[3] = test system: EV-A71-TN (VP1-T237N mutant); format: cell-based, Enterovirus A71; settings: 500 μM compound; Vero cells
EV-A71 Δ2C^116-329 [4] = settings: previously observed; cited from earlier work
[5] = Enterovirus A, EVA71, EV-A71, Vero cells, read-out: IC50 for inhibition of virus-induced CPE
[6] = Enterovirus A, EVA71, Table 7, EV-A71, Vero cells, read-out: IC50

T2 sequence (Q66478 1227-1440, stated change not applied): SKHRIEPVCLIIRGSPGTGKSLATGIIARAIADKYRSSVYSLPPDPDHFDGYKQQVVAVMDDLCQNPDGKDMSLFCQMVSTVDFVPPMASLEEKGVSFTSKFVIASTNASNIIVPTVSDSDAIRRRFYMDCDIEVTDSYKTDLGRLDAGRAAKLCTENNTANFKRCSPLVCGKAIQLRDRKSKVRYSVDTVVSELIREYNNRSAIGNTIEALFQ
T1 sequence (B9VUU3 1227-1440, stated change not applied): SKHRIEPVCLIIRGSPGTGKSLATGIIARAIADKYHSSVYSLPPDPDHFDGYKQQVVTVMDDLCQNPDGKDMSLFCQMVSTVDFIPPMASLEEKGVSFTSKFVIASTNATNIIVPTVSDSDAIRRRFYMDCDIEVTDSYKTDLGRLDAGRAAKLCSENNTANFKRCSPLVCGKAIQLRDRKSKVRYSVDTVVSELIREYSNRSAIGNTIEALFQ

Row | Structure (SMILES) | anti-viral activity (luminescence above 3SD cutoff) (EV-A71; EV-A71, Vero cells) | IC50 [1] [µM] | inhibition of the ATPase function of Δ2C^116-329 (absorbance below 3SD cutoff) (EV-A71 Δ2C^116-329 [2]) | IC50 (EV-A71; [5]) [µM] | IC50 (EV-A71; [6]) [µM] | Selectivity Index (EV-A71; Table 7) | selectivity index (EV-A71) | CC50 at 3 days (in vitro; CC50) [µM] | CC50 at 3 days (in vitro; CC50 (μM)) [µM] | decrease in viral titer vs DMSO (wild type EV-A71 (WT)) [fold] | decrease in viral titer vs DMSO [3] [fold] | IC50 (EV-A71; read-out: IC50 for inhibition of EV-A71) [µM] | IC50 (EV-A71 Δ2C^116-329 [2]; read-out: IC50 for ATPase inhibition) [mM] | IC50 for inhibition of the ATPase activity of 2C (EV-A71 Δ2C^116-329 [4])
1 | OC(COC(c1ccc(F)cc1)c1ccc(F)cc1)Cn1cnc2cc(F)c(F)cc21 (centres unmarked) [Compound 108, 1-[bis(4-fluorophenyl)methoxy]-3-(5,6-difluoro-1H-1,3-benzodiazol-1-yl)propan-2-ol] | did not show activity above the threshold value | 57.3 | inhibited 2C ATPase; also recorded: inhibited the ATPase function |  |  |  |  |  |  |  |  |  |  | 
2 | Nc1nc(N)nc(COC(=O)CCc2c(-c3ccc(F)cc3)[nH]c3ccc(F)cc23)n1 [Compound 111, (4,6-diamino-1,3,5-triazin-2-yl)methyl 3-[5-fluoro-2-(4-fluorophenyl)-1H-indol-3-yl]propanoate] | inhibited EV-A71 | 7.5 | inhibited 2C ATPase; also recorded: inhibited the ATPase function | 44.7 | 44.7 | 9.44 | 9.44 | 422 | 422 |  |  |  |  | 
3 | O=c1nc(C=Cc2cn(Cc3ccccc3Cl)c3ccccc23)cc(C(F)(F)F)[nH]1 [Compound 139, 4-(2-{1-[(2-chlorophenyl)methyl]-1H-indol-3-yl}ethenyl)-6-(trifluoromethyl)-1,2-dihydropyrimidin-2-one] | did not show activity above the threshold value | 71.3 | inhibited 2C ATPase; also recorded: inhibited the ATPase function |  |  |  |  |  |  |  |  |  |  | 
4 | O=C(Cn1nc2c(Oc3cccc(F)c3)nccn2c1=O)Nc1cccc(Cl)c1 [Compound 167, N-(3-chlorophenyl)-2-[8-(3-fluorophenoxy)-3-oxo-2H,3H-[1,2,4]triazolo[4,3-a]pyrazin-2-yl]acetamide] | inhibited EV-A71 | 61.2 | inhibited 2C ATPase; also recorded: inhibited the ATPase function | 59.4 | 59.4 | >16.8 | > 16.8 | > 400 | > 1000 | ~100 | ~5 |  |  | 
5 | Cl.N=C(N)N [GnHCl, Guanidinium hydrochloride, reference compound] |  |  |  |  |  |  |  |  |  |  |  | 140 | 83.6 | millimolar range
